Here are results for two compounds from patent publication US6949522B2, “β-2′- or 3′-halonucleosides” (Pharmasset, Inc., priority 2001, dated 2005).

Like-named read-outs stand apart in the source and are kept apart here. Marks after values point to notes of the source that are not given here.

Holding throughout (format): cell-based, human
The test system of one data set is β-actin gene. Particulars: 7 days. On the procedure:
(§1) Low passage number HepG2 cells, obtained from American Tissue Culture Collection (ATCC, Manassas, Va.) were seeded at 5,000 cells/well in collagen-coated 96-well plates. Test compounds were added to the media to obtain a final concentration of 10 μM. On culture day 7, cellular nucleic acids were prepared by using commercially available columns (RNeasy 96 kit, Qiagen). […] The mitochondrial cytochrome C oxidase subunit II (COXII) gene and the β-actin or rRNA gene were amplified from 5 μL with a multiplex Q-PCR protocol using the suitable primers and probes for both target and reference (designed using the Primer Express software, Applied Biosystems); • for COXII. • sense primer 5′-[…]-3′ (Sequence 7); • probe 5′-TET-[…]-TAMRA-3′ (Sequence 8); and • antisense probe 5′-[…]-3′ (Sequence 9); • for exon 3 of β-actin (GenBank E01094): • sense primer 5′-[…]-3′ (Sequence 10); • probe 5′-6FAM-[…]-TAMRA-3′ (Sequnece 11); and • antisense probe 5′-[…]-3′ (Sequence 12).
(§2) The rRNA gene primers and probes were purchased from Applied Biosystems. Standard curves using 1-log diluted total HepG2 DNA were linear over more than 5 logs. In addition, efficiencies of target (COXII DNA) and reference (β-actin DNA or rRNA) amplification were approximately equal, because the slope of the ΔCt line (Ct β-actin minus Ct mitochondrial) was less than 0.1 (not shown). Since equal amplification efficiencies were obtained for both genes, the comparative cycle threshold (Ct) method was used to investigate potential inhibition of the mitochondrial DNA polymerase γ. The comparative Ct method uses arithmetic formulas in which the amount of target (COXII gene) is normalized to an endogenous reference (β-actin gene or rRNA gene) and is relative to a calibrator (no drug control at day 7). The arithmetic formula for this approach is given by 2-ΔΔCt (User bulletin # 2, Applied Biosystems).
(§3) In order to study the consequences of possible inhibitory effects of these compounds on host DNA polymerases, nuclear and rnitochondrial DNA levels were quantified and compared to no-treatment controls. Cells were incubated for 7 days with 10 μM of each compound, followed by total nucleic acid extractions and multiplex Q-PCR of the rRNA gene and the mitochondrial COXII gene. Nucleic acids from cells exposed to the control compounds were also amplified in multiplex for mitDNA and the β-actin gene. The results are presented in Table 4 using the comparative Ct method.

Another data set relates to rRNA gene. Particulars: HepG2, 10 μM, 7 days. The protocol:
Low passage number HepG2 cells, obtained from American Tissue Culture Collection (ATCC, Manassas, Va.) were seeded at 5,000 cells/well in collagen-coated 96-well plates. Test compounds were added to the media to obtain a final concentration of 10 μM. On culture day 7, cellular nucleic acids were prepared by using commercially available columns (RNeasy 96 kit, Qiagen).
The rRNA gene primers and probes were purchased from Applied Biosystems. […] The comparative Ct method uses arithmetic formulas in which the amount of target (COXII gene) is normalized to an endogenous reference (β-actin gene or rRNA gene) and is relative to a calibrator (no drug control at day 7). The arithmetic formula for this approach is given by 2-ΔΔCt (User bulletin # 2, Applied Biosystems).
In order to study the consequences of possible inhibitory effects of these compounds on host DNA polymerases, nuclear and rnitochondrial DNA levels were quantified and compared to no-treatment controls. Cells were incubated for 7 days with 10 μM of each compound, followed by total nucleic acid extractions and multiplex Q-PCR of the rRNA gene and the mitochondrial COXII gene. Nucleic acids from cells exposed to the control compounds were also amplified in multiplex for mitDNA and the β-actin gene.

Data set [1] concerns mitochondrial cytochrome C oxidase subunit II (COXII) gene. To be noted: HepG2, 10 μM, 7 days; for COXIINβ-actin DNA (range) relative to control: COXII DNA normalized to β-actin DNA.
Excerpt: The Q-RT-PCR technology was also used to evaluate potential mitochondrial γ-DNA polymerase inhibition by the compounds of the present invention in relevant human cells. […] Since active nucleoside compounds in the triphosphate form lack a 3′-OH, thereby stopping virus replication by chain termination, there is a concern that these nucleoside analogues are also substrates for the human DNA polymerase γ, resulting in inhibition of mitochondrial DNA replication and subsequently toxic side effects (11, 19). In an attempt to provide direct quantifiable data on mitochondrial DNA levels intracellular, a Q-PCR technology was designed and relative quantification of COXII DNA levels were calculated using the comparative Ct method. […] Also, in agreement with previous observations, no changes in normalized mitochondrial DNA levels were observed after FIAU and D4T treatment (6, 8, 23).
as §1, §2, §3

Turning to `Nc1ccn(C2CSC(CO)O2)c(=O)n1` (single isomer, unassigned; (+)) [(+)-BCH-189, (+)-β-2′,3′-dideoxy-3′-thiacytidine], in the data set on β-actin gene (HepG2, 10 μM), the “Average ΔCt ± SD β-actin DNA” value is on record as −0.36 ± 0.31. In the data set with rRNA gene, the “Average ΔCt ± SD rDNA” value was −0.14 ± 0.61 and the “Average ΔΔCt ± SD rDNA-β-actin” value came out at 0.23 ± 0.39. Further, the “COXIINrDNA (range) relative to control” value in data set [1] (COXII DNA normalized to rDNA, 2-ΔΔCt) is 0.20 (0.13-0.32). Further, the “COXIINβ-actin DNA (range) relative to control” value in data set [1] (2-ΔΔCt) was 0.17 (0.14-0.22). In addition, in data set [1], the “Average ΔΔCt ± SD COXII-rDNA” value is recorded as 2.3 ± 0.66^d; the “Average ΔΔCt ± SD COXII-β-actin” value was 2.53 ± 0.36^d; the “effect on (normalized) mitochondrial COXII DNA levels, in words” value was “reduce rnitochondrial COXII DNA levels”.

Consider `Nc1nc2c(ncn2COCCO)c(=O)[nH]1` [ACV, 9-(2-hydroxyethoxymethyl)guanine], for which, in the data set with β-actin gene (human, 10 μM), the “Average ΔCt ± SD β-actin DNA” value was 0.17 ± 0.01. Moreover, in data set [1] (2-ΔΔCt), the “COXIINβ-actin DNA (range) relative to control” value was 1.45 (1.34-1.52). Moreover, in data set [1], the “Average ΔCt ± SD COXII DNA” value is listed as −0.37 ± 0.08 and the “Average ΔΔCt ± SD COXII-β-actin” value was −0.54 ± 0.06.
